Experimental data taken from US20200016078A1, “COMPOSITION FOR TRANSDERMAL DELIVERY OF MICRONUTRIENTS AND METHOD OF PREPARATION THEREOF” (CERELIA NUTRITECH PVT LTD, priority 2017, published 2020).

Conditions: rat, in vivo, po, 10 mg
Method: The compound was dissolved in 5 ml of distilled water and then made up to 10 ml with distilled water to make a solution of 5 mg/ml concentration. For group 1 (G1), a dose volume of 2 ml formulation containing 10 mg of reference standard was administered to each rat irrespective of the body weight. Test formulation is as provided in example 5B. Test formulation was used as such as the formulation is in gel form for dermal application. 3 gm of the gel formulation containing 10 mg of test cynacobalamine is a test formulation.
One day prior to the dermal application of test item formulation for group 2 (G2) rats, the hair from the back of each rat was removed using hair removal cream and washed with saline. On the day of experiment, the shaved area was wiped with 70% isopropyl alcohol and dried. […] Immediately after application, the area was covered with non-absorbable cotton and was secured with adhesive tape.
Blood was collected through retro orbital plexus using capillary at specified time points i.e. 0.5 hr, 1.0 hr, 3.0 hr, 6.0 hr & 24.0 hrs post-dose. To collect the serum sample, the tubes were kept for 30 min. at room temperature and allowed for coagulation and then separated by centrifugation the tubes at 3000 rpm for 10 min at 4° C.

AUC (0-∞): 2775.15 ng·h/mL
Cmax: 205.67 ng/mL
Tmax: 1 h
Substance: Cynacobalamine [Oral]
